Assay results reported in ChEMBL document CHEMBL1148957, “Asmarines I, J, and K and nosyberkol: four new compounds from the marine sponge Raspailia sp” (2004).

What was measured:
Type in all cases: functional
[1] = Cytotoxicity against human IGROV cells after 72 hrs by SRB assay
A549 = assay: Cytotoxicity against human A549 cells after 72 hrs by SRB assay; conditions: A549, 72 h
SK-BR-3 = assay: Cytotoxicity against human SK-BR-3 cells after 72 hrs by SRB assay; conditions: SK-BR-3, 72 h
K562 = assay: Cytotoxicity against human K562 cells after 72 hrs by SRB assay; conditions: K562, 72 h
[2] = Cytotoxicity against human IGROV-ET cells after 72 hrs by SRB assay
HT-29 = assay: Cytotoxicity against human HT29 cells after 72 hrs by SRB assay; conditions: HT-29, 72 h
SK-OV-3 = assay: Cytotoxicity against human SKOV3 cells after 72 hrs by SRB assay; conditions: SK-OV-3, 72 h
LNCaP = assay: Cytotoxicity against human LNCAP cells after 72 hrs by SRB assay
LoVo [3] = assay: Cytotoxicity against human LoVo cells after 72 hrs by SRB assay
DU-145 = assay: Cytotoxicity against human DU145 cells after 72 hrs by SRB assay; conditions: DU-145, 72 h
LoVo [4] = assay: Cytotoxicity against human doxorubicin-resistant LoVo cells after 72 hrs by SRB assay
PANC-1 = assay: Cytotoxicity against human PANC1 cells after 72 hrs by SRB assay; conditions: PANC-1, 72 h
SK-MEL-28 = assay: Cytotoxicity against human SK-MEL-28 cells after 72 hrs by SRB assay; conditions: SK-MEL-28, 72 h

Measured: GI50

C[C@H]1CC[C@@]23C[C@]2(C)CCC[C@@H]3[C@@]1(C)CC[C@@]1(C)CCn2cnc3ncnc(c32)N1O [ASMARINE I]
5 µM: all assays above

C[C@H]1CC[C@@]23C[C@]2(C)CCC[C@@H]3[C@@]1(C)CC[C@@]1(C)CCn2cnc3ncnc(c32)N1 [ASMARINE J]
5 µM: all assays above

C=C1CCC[C@@H]2[C@@](C)(CC[C@@]3(C)CCn4cnc5ncnc(c54)N3)[C@H](C)CC[C@@]12C [ASMARINE K]
5 µM: all assays above
